Series [1] deals with A549 cells. Briefly: Cell counting assay, A549. The format is cell-based, human. As to conditions: 96 h. The method, then:
(§1) A549 and H2030 cells cultured in 12-well plates at 20% confluence were treated with Oxy186, HPI-1, Gant61, or GDC0449 for 96 hours and then trypsinized and suspended in fresh medium. An aliquot of cell suspension was applied to a hemocytometer and counted under a microscope.
(§2) Figure 6 Inhibition of human pancreatic and lung cancer cell proliferation by Oxy186. (a,c) A549, (b) and (d) H2030, (e) PANC-1, and (f) CAPAN-1 cells were treated with the compounds as indicated in RPMI 1640 (a–d) or DMEM (e,f) containing 5% FBS for 96 h and then were trypsinized and counted. Data from a representative experiment are reported as the mean of triplicate determinations ± SD (* p < 0.05 vs. Control; ** p < 0.01 vs. control).

Series [2] can be described thus: Metabolic stability in mouse liver microsomes. It is filed as in vitro ADME.
In series [3] the test system is H2030 cells. The experiment in a line: Cell counting assay, H2030. The format is cell-based, human. The method, then:
as §1, §2

The test system of series [4] is Shh expression in CAPAN-1 cells. Briefly: Inhibition of Shh expression in CAPAN-1 cells, Q-RT-PCR. The format is cell-based, human. As to conditions: 72 h. The text has this:
(§3) NIH3T3-E1 fibroblasts were obtained from ATCC (Manassas, VA) and cultured, as previously described. CAPAN-1 and PANC-1 human pancreatic cancer cells were obtained from ATCC and cultured in Dulbecco’s Modified Eagle Medium (DMEM) containing 10% heat-inactivated fetal bovine serum (FBS) (Hyclone Laboratories, Logan, UT, USA) and antibiotics, as previously described. The human lung cancer cell lines A549 and H2030 were obtained from ATCC and cultured in RPMI-1640 containing 10% FBS. The human hepatoma cell line HepG2 was obtained from ATCC and cultured in DMEM containing 10% FBS. Mouse embryonic fibroblasts (MEFs) from suppressor of fused (Sufu) null mice (Sufu^−/−) were provided by Dr. Philip Beachy of Stanford University and cultured in DMEM containing 10% FBS. Gant61, SB431542 and vismodegib (GDC0449) were obtained from Cayman Chemical, HPI-1 was obtained from Abcam. For experiments, cells were treated in a medium containing 5% FBS.
Total RNA was extracted with the RNeasy Plus Mini Kit from Qiagen, according to the manufacturer’s instructions. One microgram of RNA was reverse-transcribed using an iScript Reverse Transcription Supermix from Bio-Rad, to make single-stranded cDNA. The cDNAs were then mixed with Qi SYBR Green Supermix (Bio-Rad, Hercules, CA, USA) for quantitative RT-PCR assay using a Bio-Rad I-cycler IQ quantitative thermocycler. All PCR samples were prepared in triplicate wells in a 96-well plate. […] Fold changes in gene expression were calculated using the ΔΔCt method. […]
Figure 4 Inhibition of Gli and Shh expression in (a) PDAC (PANC-1) and (b,c) human lung cancer cells (A549 and H2030, respectively) by Oxy186. Cells were treated with the compounds as indicated in DMEM or RPMI 1640 containing 5% FBS for (a) 48 or (b,c) 72 hours, then RNA was extracted and analyzed by Q-RT-PCR for the expression of Gli1 and normalized to GAPDH expression. (d) CAPAN-1 cells were treated with the compounds, as indicated, in DMEM containing 5% FBS for 72 h, then RNA was extracted and analyzed by Q-RT-PCR for the expression of Shh and normalized to GAPDH expression. […]

Series [5] relates to Hh target gene Gli1 expression in NIH3T3-E1 cells. Briefly: Inhibition of CAPAN-1 conditioned medium (ligand)-induced Gli1 mRNA expression, Q-RT-PCR. The format is cell-based. As to conditions: 72 h.
From the text: as §3
Growth medium in confluent […] tissue culture plates of CAPAN-1 cells were replaced with 10 ml of fresh growth medium and cells were incubated for a total of 7 days. Conditioned medium (CM), containing Shh and Ihh, was collected and spun down to remove any detached cells and debris, aliquoted, and stored frozen at −80 °C [37].
Total RNA was extracted with the RNeasy Plus Mini Kit from Qiagen, according to the manufacturer’s instructions. One microgram of RNA was reverse-transcribed using an iScript Reverse Transcription Supermix from Bio-Rad, to make single-stranded cDNA. The cDNAs were then mixed with Qi SYBR Green Supermix (Bio-Rad, Hercules, CA, USA) for quantitative RT-PCR assay using a Bio-Rad I-cycler IQ quantitative thermocycler. […] Fold changes in gene expression were calculated using the ΔΔCt method. […]
Figure 3 Inhibition of ligand-induced Hedgehog signaling. […] After 72 h, RNA was extracted and analyzed by Q-RT-PCR for the expression of Hh target genes Gli1 (a,b,d) and Ptch1 (c), and normalized to Oaz1 expression. […] Luciferase activity was measured and normalized to the Renilla luciferase activity. […]

Entries after “also recorded” stand apart in the source; their conditions may differ.

As a reminder, the fraction remaining is the share of the starting amount still present when the sample was taken. One may read the half-life as the time needed for the level to fall by half in the phase considered. As for `C[C@]12CC[C@H](O)C[C@@H]1CC[C@@H]1[C@@H]2CC[C@@]2(C)[C@H]1CC[C@@H]2[C@](C)(O)CCc1ccc(F)cc1` [Oxy186, (3S,5S,8R,9S,10S,13S,14S,17S)-17-((R)-4-(4-fluorophenyl)-2-hydroxybutan-2-yl)-10,13-dimethylhexadecahydro-1H-cyclopenta[a]phenanthren-3-ol], the “Inhibition of cell proliferation” value in series [1] (10 µM) is “significantly inhibited”. The IC50 was determined as 5 µM in series [1] (Homo sapiens, read-out: IC50 for inhibition of cell proliferation); 3.1 µM in series [3] (Homo sapiens, NCI-H2030, 96 h, read-out: IC50 for inhibition of cell proliferation); 0.6 µM in series [5] (NIH3T3 cells activated by CAPAN-1 CM Hh ligands). Besides, in series [2] (60 min, read-out: MLM, % Remaining after 60 min), the share remaining at 1 h was determined as 50%. In addition, the half-life in series [2] (read-out: MLM, Half-Life) stood at 1 h. The Anti-proliferative effect result in series [3] (96 h) is given as “significant anti-proliferative effect”. Further, in series [4], the “Inhibition of Shh expression” value is listed as “robustly inhibited; also recorded: significant inhibition”. Also, the “Inhibition of ligand-induced Gli1 mRNA expression” value in series [5] (NIH3T3-E1 cells, CAPAN-1 CM) is on record as “robustly inhibited; also recorded: greater Hh signaling inhibitory efficacy than Oxy16”.

Values taken from paper PMC6562610, “Inhibition of Hedgehog Signaling in Fibroblasts, Pancreatic, and Lung Tumor Cells by Oxy186, an Oxysterol Analogue with Drug-Like Properties” (Cells, 2019).
